Paper PMC11003488 (Journal of Enzyme Inhibition and Medicinal Chemistry, 2023)
“And” between values parts separate entries of the source, which are not always exact repeats. Equal values may be shown once. Read-outs that look alike come from different tables or passages of the source.

Tests used:
RPMI-8226 = experiment: NCI-60 SRB growth inhibition, one-dose and five-dose; assay type: cell-based; settings: Homo sapiens
NCI-H23 = experiment: as above; assay type: cell-based; settings: Homo sapiens
NCI-H322M = experiment: as above; assay type: cell-based; settings: Homo sapiens
NCI-H460 = experiment: as above; assay type: cell-based; settings: Homo sapiens
HT29 = experiment: as above; assay type: cell-based; settings: Homo sapiens
SW-620 = experiment: as above; assay type: cell-based; settings: Homo sapiens
SF-295 = experiment: as above; assay type: cell-based; settings: Homo sapiens
SNB-75 = experiment: as above; assay type: cell-based; settings: Homo sapiens
M14 = experiment: as above; assay type: cell-based; settings: Homo sapiens
UACC-257 = experiment: as above; assay type: cell-based; settings: Homo sapiens
UACC-62 = experiment: as above; assay type: cell-based; settings: Homo sapiens
NCI/ADR-RES = experiment: as above; assay type: cell-based; settings: Homo sapiens
SK-OV-3 = experiment: as above; assay type: cell-based; settings: Homo sapiens
786-0 = experiment: as above; assay type: cell-based; settings: Homo sapiens
ACHN = experiment: as above; assay type: cell-based; settings: Homo sapiens
SN12C = experiment: as above; assay type: cell-based; settings: Homo sapiens
TK-10 = experiment: as above; assay type: cell-based; settings: Homo sapiens
UO-31 = experiment: as above; assay type: cell-based; settings: Homo sapiens
MDA-MB-231/ATCC = experiment: as above; assay type: cell-based; settings: Homo sapiens
Leukaemia cell lines = experiment: NCI-60 SRB growth inhibition, subpanel; assay type: cell-based, human; settings: for GI50: Homo sapiens
NSCLC cell lines = experiment: NCI-60 SRB growth inhibition, subpanel; assay type: cell-based, human; settings: for GI50: Homo sapiens
Colon cancer cell lines = experiment: NCI-60 SRB growth inhibition, subpanel; assay type: cell-based, human; settings: for GI50: Homo sapiens
CNS cancer cell lines = experiment: NCI-60 SRB growth inhibition, subpanel; assay type: cell-based, human; settings: for GI50: Homo sapiens
Melanoma cell lines = experiment: NCI-60 SRB growth inhibition, subpanel; assay type: cell-based, human; settings: for GI50: Homo sapiens
[1] = tested on: Ovarian cancer cell lines; experiment: NCI-60 SRB growth inhibition, subpanel; assay type: cell-based, human; settings: for GI50: Homo sapiens
Renal cancer cell lines = experiment: NCI-60 SRB growth inhibition, subpanel; assay type: cell-based, human; settings: for GI50: Homo sapiens
[2] = tested on: Prostate cancer cell lines; experiment: NCI-60 SRB growth inhibition, subpanel; assay type: cell-based, human; settings: for GI50: Homo sapiens
Breast cancer cell lines = experiment: NCI-60 SRB growth inhibition, subpanel; assay type: cell-based, human; settings: for GI50: Homo sapiens
[3] = Cytotoxicity towards normal fibroblasts, safety index; assay type: cell-based, human; settings: human, WI-38 normal fibroblast cells
[4] = tested on: WI-38 normal human fibroblast cells; experiment: as above; assay type: cell-based; settings: WI-38 versus cancer cell lines
Human VEGFR-2 = Human VEGFR-2 (Homo sapiens, UniProt P35968); experiment: VEGFR-2 inhibition assay; assay type: biochemical
HCT-116 (colon cancer) [5] = experiment: Apoptosis AV/PI assay by flow cytometry; assay type: cell-based, human; settings: HCT-116, 24 h, IC50 of compound
HCT-116 (colon cancer) [6] = experiment: Cell cycle analysis by PI flow cytometry; assay type: cell-based, human; settings: HCT-116, 24 h, IC50 of compound
Caspase-3 [7] = experiment: Protein level by ELISA assay in HCT-116; assay type: cell-based, human; settings: HCT-116, IC50 of compound, 24 h, vs 0.1% DMSO
Bax [8] = experiment: Protein level by ELISA assay in HCT-116; assay type: cell-based, human; settings: HCT-116, IC50 of compound, 24 h, vs 0.1% DMSO
Caspase-3 [9] = experiment: Gene expression by RT-qPCR in HCT-116; settings: HCT-116, 24 h, IC50 of compound; vs 0.1% DMSO; 2^-ΔΔct
Bax [10] = experiment: Gene expression by RT-qPCR in HCT-116; settings: HCT-116, 24 h
TNF-α = experiment: Gene expression by RT-qPCR in HCT-116; settings: HCT-116, 24 h, IC50 of compound; vs 0.1% DMSO; 2^-ΔΔct
[11] = read-out: percent growth inhibition

Sequence of Human VEGFR-2 (P35968 20-1356): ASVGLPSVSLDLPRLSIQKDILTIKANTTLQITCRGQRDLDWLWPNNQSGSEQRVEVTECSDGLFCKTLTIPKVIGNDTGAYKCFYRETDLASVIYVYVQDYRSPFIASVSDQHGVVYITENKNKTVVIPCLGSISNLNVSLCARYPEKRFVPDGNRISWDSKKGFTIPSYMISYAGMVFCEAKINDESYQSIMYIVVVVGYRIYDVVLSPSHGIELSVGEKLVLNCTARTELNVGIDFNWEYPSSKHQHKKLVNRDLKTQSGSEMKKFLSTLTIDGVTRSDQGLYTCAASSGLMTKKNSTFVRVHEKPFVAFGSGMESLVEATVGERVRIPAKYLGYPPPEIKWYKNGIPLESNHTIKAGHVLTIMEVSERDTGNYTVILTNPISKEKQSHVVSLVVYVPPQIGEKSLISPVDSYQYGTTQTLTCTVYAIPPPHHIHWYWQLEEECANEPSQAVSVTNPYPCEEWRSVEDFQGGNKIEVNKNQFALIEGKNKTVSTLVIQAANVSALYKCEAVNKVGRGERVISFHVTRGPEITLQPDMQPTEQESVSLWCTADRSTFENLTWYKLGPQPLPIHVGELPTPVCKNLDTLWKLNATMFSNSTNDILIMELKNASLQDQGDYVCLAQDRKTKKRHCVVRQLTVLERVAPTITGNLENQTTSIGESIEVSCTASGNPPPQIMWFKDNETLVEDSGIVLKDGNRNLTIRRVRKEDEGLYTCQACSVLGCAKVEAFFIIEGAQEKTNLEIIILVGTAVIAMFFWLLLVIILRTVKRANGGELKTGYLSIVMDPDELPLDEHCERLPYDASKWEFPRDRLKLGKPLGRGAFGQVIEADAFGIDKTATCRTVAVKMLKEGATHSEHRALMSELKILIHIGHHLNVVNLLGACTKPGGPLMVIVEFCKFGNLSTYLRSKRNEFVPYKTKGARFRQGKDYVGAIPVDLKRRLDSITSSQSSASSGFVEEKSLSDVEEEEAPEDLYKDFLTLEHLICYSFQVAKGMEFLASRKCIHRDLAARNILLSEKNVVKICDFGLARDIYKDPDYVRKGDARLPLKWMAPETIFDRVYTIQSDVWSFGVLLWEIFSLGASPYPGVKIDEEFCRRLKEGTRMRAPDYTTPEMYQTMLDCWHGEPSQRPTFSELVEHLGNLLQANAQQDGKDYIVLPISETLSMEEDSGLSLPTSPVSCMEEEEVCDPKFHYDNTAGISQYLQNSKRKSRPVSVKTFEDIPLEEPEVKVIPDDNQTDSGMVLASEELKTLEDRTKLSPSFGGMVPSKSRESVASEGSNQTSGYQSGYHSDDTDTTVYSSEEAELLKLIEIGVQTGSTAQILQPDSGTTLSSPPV

Q: For COc1ccc(CNc2cccc(C(=O)/C=C/c3ccc(NC(C)=O)cc3)c2)cc1OC [Compound 5h, (E)-N-(4–(3-(3-((3,4-dimethoxybenzyl)amino)phenyl)-3-oxoprop-1-en-1-yl)phenyl) acetamide], which GI50 (RPMI-8226; RPMI-8226) is on record?
A: 1.79 µM

Q: What about the inhibition at 10 µM (RPMI-8226; RPMI-8226, read-out: percent growth inhibition) of the same molecule?
A: 112%

Q: What about the GI50 (NCI-H23; NCI-H23) of the same molecule?
A: 4.26 µM

Q: What about the inhibition at 10 µM (NCI-H23; NCI-H23, read-out: percent growth inhibition) of the same molecule?
A: 105%

Q: And the GI50 (NCI-H322M)?
A: 13.6 µM

Q: And the inhibition at 10 µM (NCI-H322M; [11])?
A: 32%

Q: What about the GI50 (NCI-H460; NCI-H460) of the same molecule?
A: 2.1 µM

Q: What about the inhibition at 10 µM (NCI-H460; NCI-H460, read-out: percent growth inhibition) of the same molecule?
A: 143%

Q: What about the GI50 (HT29; HT-29) of the same molecule?
A: 3.46 µM

Q: And the inhibition at 10 µM (HT29; HT-29, read-out: percent growth inhibition)?
A: 172%

Q: And the GI50 (SW-620; SW-620)?
A: 2 µM

Q: What about the inhibition at 10 µM (SW-620; SW-620, read-out: percent growth inhibition) of the same molecule?
A: 157%

Q: And the GI50 (SF-295; SF-295)?
A: 7.83 µM

Q: What about the inhibition at 10 µM (SF-295; SF-295, read-out: percent growth inhibition) of the same molecule?
A: 84.1%

Q: And the GI50 (SNB-75; SNB-75)?
A: 10.1 µM

Q: And the inhibition at 10 µM (SNB-75; SNB-75, read-out: percent growth inhibition)?
A: 62.8%

Q: What about the GI50 (M14; M14) of the same molecule?
A: 1.72 µM

Q: What about the inhibition at 10 µM (M14; M14, read-out: percent growth inhibition) of the same molecule?
A: 142%

Q: And the GI50 (UACC-257; UACC-257)?
A: 9.28 µM

Q: And the inhibition at 10 µM (UACC-257; UACC-257, read-out: percent growth inhibition)?
A: 61.5%

Q: What about the GI50 (UACC-62; UACC-62) of the same molecule?
A: 3.9 µM

Q: And the inhibition at 10 µM (UACC-62; UACC-62, read-out: percent growth inhibition)?
A: 130%

Q: What about the GI50 (NCI/ADR-RES) of the same molecule?
A: 2.86 µM

Q: And the GI50 (SK-OV-3; SK-OV-3)?
A: 20 µM

Q: What about the inhibition at 10 µM (SK-OV-3; SK-OV-3, read-out: percent growth inhibition) of the same molecule?
A: 75.5%

Q: And the GI50 (786-0; 786-0)?
A: 1.57 µM

Q: What about the inhibition at 10 µM (786-0; 786-0, read-out: percent growth inhibition) of the same molecule?
A: 155%

Q: And the GI50 (ACHN)?
A: 2.07 µM

Q: What about the inhibition at 10 µM (ACHN; [11]) of the same molecule?
A: 162%

Q: And the GI50 (SN12C)?
A: 2.48 µM

Q: What about the inhibition at 10 µM (SN12C; [11]) of the same molecule?
A: 135%

Q: What about the GI50 (TK-10; TK-10) of the same molecule?
A: 4.09 µM

Q: And the inhibition at 10 µM (TK-10; TK-10, read-out: percent growth inhibition)?
A: 60.7%

Q: And the GI50 (UO-31; UO-31)?
A: 3 µM

Q: And the inhibition at 10 µM (UO-31; UO-31, read-out: percent growth inhibition)?
A: 160%

Q: And the GI50 (MDA-MB-231/ATCC; MDA-MB-231)?
A: 2.84 µM

Q: What about the inhibition at 10 µM (MDA-MB-231/ATCC; MDA-MB-231, read-out: percent growth inhibition) of the same molecule?
A: 89.4%

Q: And the GI50 (Leukaemia cell lines; read-out: GI50 MG-MID)?
A: 2.36 µM

Q: And the GI50 (Leukaemia cell lines; read-out: MG-MID GI50)?
A: 2.36 µM

Q: What about the “SI (Selectivity Index)” value (Leukaemia cell lines; full panel MG-MID / leukaemia subpanel MG-MID) of the same molecule?
A: 1.90

Q: What about the GI50 (NSCLC cell lines; read-out: GI50 MG-MID) of the same molecule?
A: 8.91 µM

Q: What about the GI50 (NSCLC cell lines; read-out: MG-MID GI50) of the same molecule?
A: 8.91 µM

Q: What about the “SI (Selectivity Index)” value (NSCLC cell lines; full panel MG-MID / NSCLC subpanel MG-MID) of the same molecule?
A: 0.50

Q: What about the GI50 (Colon cancer cell lines; read-out: GI50 MG-MID) of the same molecule?
A: 3.24 µM

Q: What about the GI50 (Colon cancer cell lines; read-out: MG-MID GI50) of the same molecule?
A: 3.24 µM

Q: And the “SI (Selectivity Index)” value (Colon cancer cell lines; full panel MG-MID / Colon Cancer subpanel MG-MID)?
A: 1.38

Q: What about the GI50 (CNS cancer cell lines; read-out: GI50 MG-MID) of the same molecule?
A: 5.22 µM

Q: And the GI50 (CNS cancer cell lines; read-out: MG-MID GI50)?
A: 5.22 µM

Q: And the “SI (Selectivity Index)” value (CNS cancer cell lines; full panel MG-MID / CNS Cancer subpanel MG-MID)?
A: 0.86

Q: And the GI50 (Melanoma cell lines; read-out: GI50 MG-MID)?
A: 4.44 µM

Q: And the GI50 (Melanoma cell lines; read-out: MG-MID GI50)?
A: 4.44 µM

Q: And the “SI (Selectivity Index)” value (Melanoma cell lines; full panel MG-MID / Melanoma subpanel MG-MID)?
A: 1.01

Q: What about the GI50 ([1]; read-out: GI50 MG-MID) of the same molecule?
A: 5.75 µM

Q: What about the GI50 ([1]; read-out: MG-MID GI50) of the same molecule?
A: 5.75 µM

Q: What about the “SI (Selectivity Index)” value ([1]; full panel MG-MID / Ovarian Cancer subpanel MG-MID) of the same molecule?
A: 0.78

Q: And the GI50 (Renal cancer cell lines; read-out: GI50 MG-MID)?
A: 3.99 µM

Q: What about the GI50 (Renal cancer cell lines; read-out: MG-MID GI50) of the same molecule?
A: 3.99 µM

Q: And the “SI (Selectivity Index)” value (Renal cancer cell lines; full panel MG-MID / Renal Cancer subpanel MG-MID)?
A: 1.12

Q: And the GI50 ([2]; read-out: GI50 MG-MID)?
A: 3.53 µM

Q: What about the GI50 ([2]; read-out: MG-MID GI50) of the same molecule?
A: 3.53 µM

Q: And the “SI (Selectivity Index)” value ([2]; full panel MG-MID / Prostatic Cancer subpanel MG-MID)?
A: 1.27

Q: And the GI50 (Breast cancer cell lines; read-out: GI50 MG-MID)?
A: 2.91 µM

Q: And the GI50 (Breast cancer cell lines; read-out: MG-MID GI50)?
A: 2.91 µM

Q: What about the “SI (Selectivity Index)” value (Breast cancer cell lines; full panel MG-MID / Breast Cancer subpanel MG-MID) of the same molecule?
A: 1.54

Q: What about the GI50 at 48 h [3] of the same molecule?
A: > 100 µM

Q: And the Safety index [4]?
A: >1

Q: And the IC50 (Human VEGFR-2)?
A: 0.31 ± 0.015 µM

Q: What about the “% Early apoptotic cells (LR)” value (HCT-116 (colon cancer) [5]) of the same molecule?
A: 0.24 ± 0.01%

Q: And the “% Late apoptotic cells (UL)” value (HCT-116 (colon cancer) [5])?
A: 64.62 ± 10.1%

Q: What about the “% Necrotic cells (UR)” value (HCT-116 (colon cancer) [5]) of the same molecule?
A: 2.25 ± 0.71%

Q: What about the “% Viable cells (LL)” value (HCT-116 (colon cancer) [5]) of the same molecule?
A: 32.89 ± 3.8%

Q: And the “% G0-G1” value (HCT-116 (colon cancer) [6])?
A: 35.12 ± 3.5%

Q: And the “% G2M” value (HCT-116 (colon cancer) [6])?
A: 3.21 ± 1.1%

Q: And the “% S” value (HCT-116 (colon cancer) [6])?
A: 4.91 ± 1.1%

Q: What about the “% SubG0-G1” value (HCT-116 (colon cancer) [6]) of the same molecule?
A: 56.87 ± 7.7%

Q: What about the caspase-3 protein level (Caspase-3 [7]) of the same molecule?
A: 43.12 fold

Q: And the Bax protein level (Bax [8])?
A: 2.96 fold

Q: And the “Caspase-3 gene expression fold change” value (Caspase-3 [9])?
A: 0.002 fold

Q: And the “Bax gene expression fold change” value (Bax [10]; IC50 of compound, vs 0.1% DMSO, 2^-ΔΔct)?
A: 30.06 ± 3.4 fold

Q: And the Bax/Bcl-2 ratio (Bax [10]; ratio of gene expression fold changes)?
A: 31.6

Q: And the “TNF-α gene expression fold change” value (TNF-α)?
A: 2.2 fold and 2.20 ± 0.17 fold
